According to paper PMC10449633 (Nature Chemical Biology, 2023):
Several values for one entry are separate records, joined by “and”; a condition that tells them apart may be missing. Equal entries are not always repeated. Entries after “also recorded” stand apart in the source; their conditions may differ. Where two headings read alike, the source gives them in different places. Numbered stars: 1 amine (or outer) side, 2 acyl side, 3 side chain; on linkers, the order of the positions; unused ones are H or OH. Square brackets hold non-standard residues; d marks the D form. Peptide text beside a SMILES is read from it. ξ: configuration not given here. X1 = CN(C(Cc1cn(Cc2ccc(Br)cc2)c2ccccc12)C(=O)[*:2])[*:1]; ξAla(CF3) = NC(CC(F)(F)F)C(=O)O; X2 = N#CCCC(O[*:1])C(=O)[*:2]; NMeL = CN[CH](CC(C)C)C(=O)O; NMeA = CN[CH](C)C(=O)O

Columns and labels:
[1] = tested on: Sec61 R66I TNFa(FL) reporter cells; assay: CTG (CellTiter-Glo) viability of TNFa(FL) reporter cells expressing Sec61 R66I; type: cell-based; conditions: replicate columns
Description: Supplement 41589_2023_1326_MOESM7_ESM.xlsx, sheet "Panel B" | column: Sec61 R66I - CTG (TNFa(FL))

[2] = tested on: Sec61 WT TNFa(FL) reporter cells; assay: CTG (CellTiter-Glo) viability of TNFa(FL) reporter cells expressing Sec61 WT; type: cell-based; conditions: replicate columns
Description: Supplement 41589_2023_1326_MOESM7_ESM.xlsx, sheet "Panel B" | column: Sec61 WT - CTG (TNFa(FL))

[3] = tested on: collagen antibody-induced arthritis in BALB/c mice; assay: Anticollagen antibody-induced arthritis model, clinical scores; type: in vivo, mouse
R66I Sec61α = biological target: T1, R66I Sec61α (Canis lupus familiaris, UniProt P38377, R66I); assay: GLuc secretion reporter fused to full-length IL-2 or TNF, cells stably expressing R66I Sec61α; type: cell-based, canine; conditions: for Sec61 R66I - Hu IL2(FL) / Sec61 R66I - Hu PD1(ss) / Sec61 R66I - Hu TNFa(FL): replicate columns
T1 construct: expressed in transfected cells
T1 sequence (P60468 whole entry, the tested form may be a part): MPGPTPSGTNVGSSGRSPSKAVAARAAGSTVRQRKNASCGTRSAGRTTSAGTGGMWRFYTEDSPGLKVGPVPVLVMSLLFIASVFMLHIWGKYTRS
T1 sequence (P38377 whole entry R66I, the tested form may be a part): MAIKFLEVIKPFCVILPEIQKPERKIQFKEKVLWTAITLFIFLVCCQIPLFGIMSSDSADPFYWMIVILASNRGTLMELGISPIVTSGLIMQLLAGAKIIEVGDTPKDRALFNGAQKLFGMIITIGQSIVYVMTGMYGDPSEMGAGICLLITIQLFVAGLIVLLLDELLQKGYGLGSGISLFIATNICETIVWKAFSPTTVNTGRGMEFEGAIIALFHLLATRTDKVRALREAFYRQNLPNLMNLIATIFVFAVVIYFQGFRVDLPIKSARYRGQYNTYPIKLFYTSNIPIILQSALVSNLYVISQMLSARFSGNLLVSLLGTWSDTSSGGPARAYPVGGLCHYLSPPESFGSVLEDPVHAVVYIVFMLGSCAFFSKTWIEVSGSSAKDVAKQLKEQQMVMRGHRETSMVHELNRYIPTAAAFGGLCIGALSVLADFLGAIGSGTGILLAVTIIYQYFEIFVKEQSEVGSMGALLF
T1 sequence (P60059 whole entry, further chain, the tested form may be a part): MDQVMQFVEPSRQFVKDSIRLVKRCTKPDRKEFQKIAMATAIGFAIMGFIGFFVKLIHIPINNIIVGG

mouse splenocytes = assay: Cytokine secretion assay, stimulated mouse splenocytes (MSD U-PLEX); type: cell-based; conditions: 24 h, tested 0.025–25,000 nM
Sec61α = assay: Photo-cotransin (CT7) photo-affinity labeling competition, LMNG-solubilized ER microsomes; type: binding, sheep; conditions: excess competitor, LMNG-solubilized ER membranes
Description: To understand the molecular basis of Sec61 inhibition by KZR-8445, we pursued structural investigations using single-particle cryo-EM. Our initial attempts to isolate cotransin-bound ribosome–Sec61 complexes with the commonly used detergent digitonin were not successful. Several other detergents were screened for retention of native-like cotransin binding by subjecting solubilized Sec61 to a cotransin photo-affinity labeling assay[15] (Extended Data Fig. 2a). This screen identified lauryl maltoside neopentyl glycol (LMNG), a lipid-mimetic detergent that permits maximal photo-cotransin binding, as indicated by specific crosslinking to the Sec61α subunit in LMNG-solubilized ER membranes.
Sheep pancreatic ER microsomes (SRM) were isolated according to the method described earlier[48],[49]. […] The labeled proteins were analyzed by SDS–PAGE and in-gel fluorescence followed by Western blotting using anti-Sec61α and anti-RPL18 antibodies. […]
Extended Data Fig. 2 Isolation and biochemical characterization of the inhibitor-bound ribosome-Sec61 (RNC) complexes. […] (c) Gel filtration profile of clarified detergent-solubilized sample fractions with measured absorbance at A260. […]

Sec61α N300A = Sec61α N300A (Canis lupus familiaris, UniProt P38377, N300A); assay: Luciferase reporter assay in HEK293 cells expressing Sec61α N300A; set-up: remaining activity: dose or concentration left out as unconfirmed
Chain of Sec61α N300A (P60468 whole entry): as the sequence (P60468 whole entry, the tested form may be a part) above
Chain of Sec61α N300A (P60059 whole entry, further chain): as the sequence (P60059 whole entry, further chain, the tested form may be a part) above
Chain of Sec61α N300A (P38377 whole entry N300A): as the sequence (P38377 whole entry R66I, the tested form may be a part) above, with I66R, N300A counted along it
Description: Data are mean values ± s.d. from n = 2 independent experiments.
HEK293T cells (0.3 × 10^6) were seeded per well of a six-well plate and incubated at 37 °C in 5% CO2 for 24 h to adhere. Each of the two wells was transfected with 1 µg of plasmid encoding a luciferase with the signal peptide of either VCAM1 or pPL using PEI in a 5:1 ratio, after which cells were returned to the incubator for a further 24 h. Transfected cells were then resuspended following trypsinization, cell count estimated using a TC20 Automated Cell Counter (BioRad) and diluted to seed a 96-well flat-bottom plate with 1.6 × 10^4 cells per well. […] Cells were then incubated for a further 24 h, after which the luciferase-containing media were transferred to a clean 96-well plate and stored at −20 °C. Luciferase activity of the media was estimated using a Gaussia-GLOW Juice Luciferase Assay kit from PJK Biotech GmbH as per the manufacturer’s instructions. Luminescence was measured using an EnSpire Multimode plate reader (PerkinElmer). Background luminescence from media placed in a well with neither cells nor drug was subtracted from all values, and measurements were calculated as a percentage of luminescence intensity of a well expressing the appropriate luciferase construct in the absence of any drug. Curves were fitted, and IC50 values were calculated using GraphPad Prism 8.
WT canine Sec61 was cloned into pcDNA5/FRT/TO (Thermo Fisher Scientific), and point mutations were generated using PCR. All mutants were sequence verified. HEK293 Flp-In T-REx cells (Thermo Fisher Scientific, R78007) were cultured in Dulbecco’s modified Eagle’s medium (Gibco) supplemented with 10% FBS (Gibco) at 37 °C in a humidified 5% CO2 atmosphere. Approximately 0.3 µg of pOG44 and 1 µg of targeting construct plasmids were mixed in 250 µl of OptiMEM (Thermo Fisher Scientific, 51985-026). A total of 3 µl (3 µg) Lipofectamine3000 transfection reagent was then added to the DNA mix and incubated at room temperature for 20 min, and the whole mixture was added to the cells. Cells were exposed to 100 µg ml^−^1 hygromycin B (Invitrogen) and 10 µg ml^−^1 blasticidin for 3–4 weeks until the appearance of resistant colonies. Colonies were expanded into T75 flasks and induced with doxycycline (Sigma-Aldrich, D9891) at a concentration of 1–5 µg ml^−^1 for 48 h. Cells were collected, and total RNA was extracted followed by cDNA amplification and sequencing of Sec61 with gene-specific PCR primers to confirm. Cells were then used for the luciferase reporter assays as above.
Data are mean values ± SD and are representative of n = 2 independent experiments.

In the case of `CC(C)CC1NC(=O)C(Cc2cn(Cc3ccc(Br)cc3)c3ccccc23)N(C)C(=O)C(CC(F)(F)F)NC(=O)C(CC(C)C)N(C)C(=O)C(CC(F)(F)F)NC(=O)C(CCC#N)OC(=O)C(C)N(C)C1=O` (stereo not drawn) [KZR-8445] (cyclo([X1]L[NMeA][X2][ξAla(CF3)][NMeL][ξAla(CF3)]); configuration not given here), the “Sec61 R66I - CTG (TNFa(FL))” value ([1]; 0.32 nM) is reported as 108 and 113 and 120, the “Sec61 R66I - CTG (TNFa(FL))” value ([1]; 1.6 nM) is reported as 101 and 108 and 112 and the “Sec61 R66I - CTG (TNFa(FL))” value ([1]; 8 nM) is reported as 103 and 106 and 110. The “Sec61 R66I - CTG (TNFa(FL))” value ([1]; 40 nM) was 99 and 111 and 119, the “Sec61 R66I - CTG (TNFa(FL))” value ([1]; 200 nM) was 106 and 110 and 120 and the “Sec61 R66I - CTG (TNFa(FL))” value ([1]; 1000 nM) was 112 (2×) and 113. For the same molecule, the “Sec61 R66I - CTG (TNFa(FL))” value ([1]; 5000 nM) was 102 and 107 and 104, the “Sec61 R66I - CTG (TNFa(FL))” value ([1]; 25000 nM) was 101 and 94 and 102 and the “Sec61 WT - CTG (TNFa(FL))” value ([2]; 0.32 nM) was 111 and 110 and 116. The “Sec61 WT - CTG (TNFa(FL))” value ([2]; 1.6 nM) was 106 and 113 and 116, the “Sec61 WT - CTG (TNFa(FL))” value ([2]; 8 nM) was 110 and 111 and 115 and the “Sec61 WT - CTG (TNFa(FL))” value ([2]; 40 nM) was 112 and 121 and 115. For the same molecule, the “Sec61 WT - CTG (TNFa(FL))” value ([2]; 200 nM) was 108 and 114 and 116, the “Sec61 WT - CTG (TNFa(FL))” value ([2]; 1000 nM) was 105 and 108 and 113 and the “Sec61 WT - CTG (TNFa(FL))” value ([2]; 5000 nM) was 95 and 105 (2×). The “Sec61 WT - CTG (TNFa(FL))” value ([2]; 25000 nM) was 92 and 89 (2×), the “P versus vehicle (one-way ANOVA), disease progression” value ([3]; 10 mg kg−1 thrice weekly) was 0.01 and the “P versus vehicle (one-way ANOVA), disease progression” value ([3]; 20 mg kg−1 thrice weekly) was under 0.0001. The “P versus vehicle, disease progression” value ([3]; 20 mg kg−1 weekly) was 0.007, the “efficacy of weekly administration” value ([3]; 20 mg kg−1 weekly) was “effective” and the “arthritis disease progression / clinical symptoms” value ([3]; IV thrice weekly after onset of disease) was “blocked disease progression in a dose-dependent manner; also recorded: ameliorated clinical arthritis symptoms”. The “anti-inflammatory effect compared with dexamethasone” value ([3]; highest dose) was “stronger anti-inflammatory effect than the corticosteroid dexamethasone”, the “Sec61 R66I - Hu IL2(FL)” value (R66I Sec61α; 0.32 nM) was 116 (2×) and 120 and the “Sec61 R66I - Hu PD1(ss)” value (R66I Sec61α; 0.32 nM) was 105 and 121 and 112. The “Sec61 R66I - Hu TNFa(FL)” value (R66I Sec61α; 0.32 nM) was 121 and 138 and 116, the “Sec61 R66I - Hu IL2(FL)” value (R66I Sec61α; 1.6 nM) was 105 and 113 and 110 and the “Sec61 R66I - Hu PD1(ss)” value (R66I Sec61α; 1.6 nM) was 120 and 103 and 107. For the same molecule, the “Sec61 R66I - Hu TNFa(FL)” value (R66I Sec61α; 1.6 nM) was 85 and 126 and 152, the “Sec61 R66I - Hu IL2(FL)” value (R66I Sec61α; 8 nM) was 113 and 98 and 120 and the “Sec61 R66I - Hu PD1(ss)” value (R66I Sec61α; 8 nM) was 115 and 104 and 125. The “Sec61 R66I - Hu TNFa(FL)” value (R66I Sec61α; 8 nM) was 118 and 113 and 150, the “Sec61 R66I - Hu IL2(FL)” value (R66I Sec61α; 40 nM) was 101 and 106 and 117 and the “Sec61 R66I - Hu PD1(ss)” value (R66I Sec61α; 40 nM) was 115 and 120 and 121. For the same molecule, the “Sec61 R66I - Hu TNFa(FL)” value (R66I Sec61α; 40 nM) was 103 and 123 and 141, the “Sec61 R66I - Hu IL2(FL)” value (R66I Sec61α; 200 nM) was 106 and 96 and 94 and the “Sec61 R66I - Hu PD1(ss)” value (R66I Sec61α; 200 nM) was 88 and 107 and 86. The “Sec61 R66I - Hu TNFa(FL)” value (R66I Sec61α; 200 nM) was 88 and 105 and 111, the “Sec61 R66I - Hu IL2(FL)” value (R66I Sec61α; 1000 nM) was 79 and 90 and 87 and the “Sec61 R66I - Hu PD1(ss)” value (R66I Sec61α; 1000 nM) was 68 and 64 and 75. The “Sec61 R66I - Hu TNFa(FL)” value (R66I Sec61α; 1000 nM) was 82 (2×) and 71, the “Sec61 R66I - Hu IL2(FL)” value (R66I Sec61α; 5000 nM) was 83 and 76 and 88 and the “Sec61 R66I - Hu PD1(ss)” value (R66I Sec61α; 5000 nM) was 52 and 49 (2×). For the same molecule, the “Sec61 R66I - Hu TNFa(FL)” value (R66I Sec61α; 5000 nM) was 73 and 85 and 77, the “Sec61 R66I - Hu IL2(FL)” value (R66I Sec61α; 25000 nM) was 89 and 88 and 72 and the “Sec61 R66I - Hu PD1(ss)” value (R66I Sec61α; 25000 nM) was 48 (2×) and 40. For the same molecule, the “Sec61 R66I - Hu TNFa(FL)” value (R66I Sec61α; 25000 nM) was 70 and 78 and 77, the “block of secretion of both GLuc reporter constructs in R66I cells” value (R66I Sec61α; IL-2 and TNFα GLuc, versus WT Sec61α) was “reduced” and the IC50 (mouse splenocytes; LPS-stimulation, read-out: IC50, IL-6 secretion) was 150 nM. It also gave an IC50 (mouse splenocytes; Mus musculus, Splenocyte, LPS-stimulation, read-out: IC50, IL-1β secretion) of over 25000 nM, an IC50 (mouse splenocytes; Mus musculus, Splenocyte, LPS-stimulation, read-out: IC50, IL-6 secretion) of 114 nM and an IC50 (mouse splenocytes; Mus musculus, Splenocyte, LPS-stimulation, read-out: IC50, IL-23 secretion) of 206 nM. The IC50 (mouse splenocytes; Mus musculus, Splenocyte, anti-CD3/CD28-stimulation, read-out: IC50, GM-CSF secretion) was 31.2 nM, the IC50 (mouse splenocytes; Mus musculus, Splenocyte, anti-CD3/CD28-stimulation, read-out: IC50, IFNγ secretion) was 59.6 nM and the IC50 (mouse splenocytes; Mus musculus, Splenocyte, anti-CD3/CD28-stimulation, read-out: IC50, TNFα secretion) was 103 nM. The IC50 (mouse splenocytes; anti-CD3/CD28-stimulation, read-out: IC50, GM-CSF secretion) was 39.5 nM, the IC50 (mouse splenocytes; anti-CD3/CD28-stimulation, read-out: IC50, IFNγ secretion) was 32 nM and the IC50 (mouse splenocytes; anti-CD3/CD28-stimulation, read-out: IC50, TNFα secretion) was 84.7 nM. The “competition of photo-cotransin crosslinking to Sec61α” value (Sec61α) was “efficiently competed”, the remaining activity at 0.00018303 µM (Sec61α N300A; HEK293, 24 h, read-out: luciferase reporter activity (% of no-drug control), N300A, Drug nM (log10) 0.18303) was 95.9% and the remaining activity at 0.000660151 µM (Sec61α N300A; HEK293, 24 h, read-out: luciferase reporter activity (% of no-drug control), N300A, Drug nM (log10) 0.660151) was 88.9%. It also gave a remaining activity at 0.00113727 µM (Sec61α N300A; HEK293, 24 h, read-out: luciferase reporter activity (% of no-drug control), N300A, Drug nM (log10) 1.13727) of 80.9%, a remaining activity (Sec61α N300A; HEK293, 24 h, read-out: luciferase reporter activity (% of no-drug control), N300A, Drug nM (log10) 1.61439) of 74.8% and a remaining activity (Sec61α N300A; HEK293, 24 h, read-out: luciferase reporter activity (% of no-drug control), N300A, Drug nM (log10) 2.09151) of 69.1%. For the same molecule, the remaining activity (Sec61α N300A; HEK293, 24 h, read-out: luciferase reporter activity (% of no-drug control), N300A, Drug nM (log10) 2.56864) was 69.9%, the remaining activity (Sec61α N300A; HEK293, 24 h, read-out: luciferase reporter activity (% of no-drug control), N300A, Drug nM (log10) 3.04576) was 64% and the remaining activity (Sec61α N300A; HEK293, 24 h, read-out: luciferase reporter activity (% of no-drug control), N300A, Drug nM (log10) 3.52288) was 62%. The remaining activity at 0.004 µM (Sec61α N300A; HEK293, 24 h, read-out: luciferase reporter activity (% of no-drug control), N300A, Drug nM (log10) 4) was 67.2%, the remaining activity at 0.000508 µM (Sec61α N300A; HEK293, 24 h, read-out: luciferase reporter activity (% of no-drug control), N300A, Drug nM (log10) -0.29409) was 96.5% and the “effect of N300A Sec61α expression on sensitivity in secreted GLuc assay” value (Sec61α N300A; HEK293 cells) was “conferred resistance”.
